{
  "source": "ChEMBL document CHEMBL5465560",
  "about": "“Selectivity Literature for EUbOPEN Chemogenomic Library” (2024)",
  "key": {"[1]": {"target": "T1, Mitogen-activated protein kinase kinase kinase 19 (Homo sapiens) (UniProt Q56UN5)", "T1 sequence (whole entry)": "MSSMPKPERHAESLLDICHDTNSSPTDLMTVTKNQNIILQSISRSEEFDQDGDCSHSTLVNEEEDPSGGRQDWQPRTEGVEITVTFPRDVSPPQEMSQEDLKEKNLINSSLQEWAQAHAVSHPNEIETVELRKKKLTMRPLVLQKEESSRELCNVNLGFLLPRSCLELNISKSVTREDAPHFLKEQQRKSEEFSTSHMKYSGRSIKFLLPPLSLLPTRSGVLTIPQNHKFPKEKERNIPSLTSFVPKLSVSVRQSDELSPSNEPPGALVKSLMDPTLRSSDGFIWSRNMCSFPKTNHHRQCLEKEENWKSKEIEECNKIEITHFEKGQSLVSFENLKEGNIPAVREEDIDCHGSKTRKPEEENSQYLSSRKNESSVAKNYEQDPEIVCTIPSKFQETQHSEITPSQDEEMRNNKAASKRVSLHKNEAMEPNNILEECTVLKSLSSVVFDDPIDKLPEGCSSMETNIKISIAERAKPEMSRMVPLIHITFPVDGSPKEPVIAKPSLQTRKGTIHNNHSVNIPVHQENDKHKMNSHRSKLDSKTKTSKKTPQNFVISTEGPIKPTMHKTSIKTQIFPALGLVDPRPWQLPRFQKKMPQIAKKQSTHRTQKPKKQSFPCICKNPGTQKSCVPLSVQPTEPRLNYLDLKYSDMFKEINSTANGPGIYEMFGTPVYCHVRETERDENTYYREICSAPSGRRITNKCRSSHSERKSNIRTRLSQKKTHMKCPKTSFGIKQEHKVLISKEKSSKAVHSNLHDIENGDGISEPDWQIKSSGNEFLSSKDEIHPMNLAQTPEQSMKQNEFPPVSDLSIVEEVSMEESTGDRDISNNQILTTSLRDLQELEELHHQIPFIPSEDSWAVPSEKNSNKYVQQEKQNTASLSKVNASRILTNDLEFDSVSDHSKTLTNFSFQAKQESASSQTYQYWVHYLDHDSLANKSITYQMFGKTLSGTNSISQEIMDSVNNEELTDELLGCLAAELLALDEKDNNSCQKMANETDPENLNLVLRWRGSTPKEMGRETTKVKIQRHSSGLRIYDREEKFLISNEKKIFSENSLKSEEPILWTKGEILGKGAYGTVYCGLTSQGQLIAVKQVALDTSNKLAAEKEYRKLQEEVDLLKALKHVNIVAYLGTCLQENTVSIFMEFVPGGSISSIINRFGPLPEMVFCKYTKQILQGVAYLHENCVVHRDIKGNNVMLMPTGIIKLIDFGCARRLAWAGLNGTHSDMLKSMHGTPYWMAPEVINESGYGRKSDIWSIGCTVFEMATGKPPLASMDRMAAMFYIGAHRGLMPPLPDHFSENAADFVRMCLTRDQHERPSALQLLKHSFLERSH", "conditions": "at 10 µM"}, "[2]": {"target": "Casein kinase II subunit alpha (Homo sapiens, UniProt P68400)", "sequence (P68400 whole entry, looked up)": "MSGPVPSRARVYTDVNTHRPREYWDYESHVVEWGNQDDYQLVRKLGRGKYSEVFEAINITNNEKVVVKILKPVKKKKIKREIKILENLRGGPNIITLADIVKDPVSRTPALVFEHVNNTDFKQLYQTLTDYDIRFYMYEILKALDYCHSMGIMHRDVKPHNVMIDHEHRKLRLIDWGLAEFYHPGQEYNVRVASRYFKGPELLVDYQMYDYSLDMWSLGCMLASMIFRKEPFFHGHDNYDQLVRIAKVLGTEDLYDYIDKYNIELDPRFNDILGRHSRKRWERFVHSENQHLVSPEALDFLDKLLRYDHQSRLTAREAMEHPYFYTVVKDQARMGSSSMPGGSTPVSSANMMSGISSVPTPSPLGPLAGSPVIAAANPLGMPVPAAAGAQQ", "experiment": "Selectivity interaction (Kinase screening (Upstate/Millipore)) EUB0000604a CSNK2A1"}, "[3]": {"target": "Tyrosine-protein kinase ABL1 (Homo sapiens, UniProt P00519)", "sequence (P00519 whole entry)": "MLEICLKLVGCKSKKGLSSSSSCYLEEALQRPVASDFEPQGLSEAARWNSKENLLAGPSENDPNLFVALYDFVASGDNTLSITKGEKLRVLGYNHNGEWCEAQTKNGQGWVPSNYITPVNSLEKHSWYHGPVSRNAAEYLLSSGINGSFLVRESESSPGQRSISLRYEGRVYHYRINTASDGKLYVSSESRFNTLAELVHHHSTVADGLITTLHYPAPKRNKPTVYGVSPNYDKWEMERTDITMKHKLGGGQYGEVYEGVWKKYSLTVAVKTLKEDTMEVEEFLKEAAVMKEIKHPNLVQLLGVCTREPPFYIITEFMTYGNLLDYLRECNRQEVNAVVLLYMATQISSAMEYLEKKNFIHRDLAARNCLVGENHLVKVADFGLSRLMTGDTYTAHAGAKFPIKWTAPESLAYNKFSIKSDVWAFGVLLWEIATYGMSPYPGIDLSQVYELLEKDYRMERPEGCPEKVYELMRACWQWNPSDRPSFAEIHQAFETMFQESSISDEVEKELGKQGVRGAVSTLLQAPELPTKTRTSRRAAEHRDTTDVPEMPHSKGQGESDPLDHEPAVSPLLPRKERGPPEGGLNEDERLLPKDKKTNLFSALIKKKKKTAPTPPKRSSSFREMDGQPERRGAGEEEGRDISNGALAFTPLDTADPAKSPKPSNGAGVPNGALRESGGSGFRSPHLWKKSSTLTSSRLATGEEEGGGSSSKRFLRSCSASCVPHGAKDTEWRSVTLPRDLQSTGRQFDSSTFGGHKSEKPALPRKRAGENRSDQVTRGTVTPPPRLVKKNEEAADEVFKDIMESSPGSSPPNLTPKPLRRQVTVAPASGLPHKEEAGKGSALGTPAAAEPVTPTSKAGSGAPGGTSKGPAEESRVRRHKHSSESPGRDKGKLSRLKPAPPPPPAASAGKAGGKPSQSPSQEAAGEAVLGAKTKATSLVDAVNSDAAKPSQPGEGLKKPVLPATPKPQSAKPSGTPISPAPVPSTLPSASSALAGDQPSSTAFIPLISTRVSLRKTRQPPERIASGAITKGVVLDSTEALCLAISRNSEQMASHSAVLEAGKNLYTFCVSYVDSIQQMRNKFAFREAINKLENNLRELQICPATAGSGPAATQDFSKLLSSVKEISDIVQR", "experiment": "Selectivity interaction (Ambit KINOMEscan and KiNATiv profiling in Jurkat cells) EUB0000090b ABL1", "format": "cell-based", "conditions": "at 1 µM"}, "[4]": {"target": "Mitogen-activated protein kinase kinase kinase 9 (Homo sapiens) (UniProt P80192)", "sequence (P80192 whole entry, looked up)": "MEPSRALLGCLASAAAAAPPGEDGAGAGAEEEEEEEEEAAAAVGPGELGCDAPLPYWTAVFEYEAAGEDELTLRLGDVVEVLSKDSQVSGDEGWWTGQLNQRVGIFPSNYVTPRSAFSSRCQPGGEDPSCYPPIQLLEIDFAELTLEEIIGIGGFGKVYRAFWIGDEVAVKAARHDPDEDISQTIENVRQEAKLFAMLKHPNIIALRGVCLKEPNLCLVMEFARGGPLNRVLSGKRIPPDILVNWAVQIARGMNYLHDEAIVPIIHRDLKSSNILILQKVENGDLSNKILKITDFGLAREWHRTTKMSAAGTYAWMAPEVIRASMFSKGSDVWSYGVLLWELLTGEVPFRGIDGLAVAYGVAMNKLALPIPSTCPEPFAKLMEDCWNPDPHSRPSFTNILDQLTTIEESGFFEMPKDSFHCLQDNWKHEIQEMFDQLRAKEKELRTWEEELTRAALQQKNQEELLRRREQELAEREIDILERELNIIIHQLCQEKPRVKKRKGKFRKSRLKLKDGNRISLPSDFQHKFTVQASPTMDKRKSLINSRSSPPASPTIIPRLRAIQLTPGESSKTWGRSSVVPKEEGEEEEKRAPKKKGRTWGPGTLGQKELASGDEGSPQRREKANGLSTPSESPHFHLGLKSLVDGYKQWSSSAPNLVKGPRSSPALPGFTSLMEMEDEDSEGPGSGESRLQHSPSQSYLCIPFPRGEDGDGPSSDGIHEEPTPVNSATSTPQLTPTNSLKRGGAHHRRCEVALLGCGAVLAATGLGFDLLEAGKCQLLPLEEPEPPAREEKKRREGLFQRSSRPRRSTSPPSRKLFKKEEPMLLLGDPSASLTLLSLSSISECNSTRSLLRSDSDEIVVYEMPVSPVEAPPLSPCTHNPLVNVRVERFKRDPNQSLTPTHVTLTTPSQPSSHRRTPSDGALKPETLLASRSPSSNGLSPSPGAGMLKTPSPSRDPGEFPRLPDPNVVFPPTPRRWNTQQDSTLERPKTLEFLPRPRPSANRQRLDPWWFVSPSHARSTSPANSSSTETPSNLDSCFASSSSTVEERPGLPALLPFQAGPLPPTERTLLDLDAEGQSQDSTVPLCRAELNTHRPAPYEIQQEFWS", "experiment": "Selectivity interaction (KinomeScan (DiscoverX)) EUB0001079a MAP3K9", "conditions": "at 1 µM"}, "[5]": {"target": "T2, Tyrosine-protein kinase TXK (Homo sapiens) (UniProt P42681)", "T2 sequence (whole entry)": "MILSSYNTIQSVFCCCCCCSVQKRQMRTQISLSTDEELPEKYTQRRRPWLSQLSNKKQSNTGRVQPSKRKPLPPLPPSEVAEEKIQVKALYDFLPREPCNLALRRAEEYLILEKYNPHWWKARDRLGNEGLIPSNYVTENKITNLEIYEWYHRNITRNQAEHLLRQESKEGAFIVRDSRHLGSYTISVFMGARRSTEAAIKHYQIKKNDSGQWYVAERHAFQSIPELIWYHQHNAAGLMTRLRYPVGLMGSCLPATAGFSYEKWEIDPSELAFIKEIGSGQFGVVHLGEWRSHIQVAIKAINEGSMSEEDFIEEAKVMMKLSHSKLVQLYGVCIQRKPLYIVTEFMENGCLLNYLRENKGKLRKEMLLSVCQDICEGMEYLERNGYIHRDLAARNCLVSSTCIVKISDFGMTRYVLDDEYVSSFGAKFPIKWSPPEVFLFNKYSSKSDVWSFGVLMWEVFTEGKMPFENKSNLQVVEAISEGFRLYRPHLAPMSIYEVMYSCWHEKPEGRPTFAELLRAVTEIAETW", "experiment": "Selectivity interaction (KinomeScan (DiscoverX)) EUB0001619a TXK", "conditions": "at 1 µM"}, "[6]": {"target": "Serine/threonine-protein kinase SIK3 (Homo sapiens) (UniProt Q9Y2K2)", "sequence (Q9Y2K2 whole entry, looked up)": "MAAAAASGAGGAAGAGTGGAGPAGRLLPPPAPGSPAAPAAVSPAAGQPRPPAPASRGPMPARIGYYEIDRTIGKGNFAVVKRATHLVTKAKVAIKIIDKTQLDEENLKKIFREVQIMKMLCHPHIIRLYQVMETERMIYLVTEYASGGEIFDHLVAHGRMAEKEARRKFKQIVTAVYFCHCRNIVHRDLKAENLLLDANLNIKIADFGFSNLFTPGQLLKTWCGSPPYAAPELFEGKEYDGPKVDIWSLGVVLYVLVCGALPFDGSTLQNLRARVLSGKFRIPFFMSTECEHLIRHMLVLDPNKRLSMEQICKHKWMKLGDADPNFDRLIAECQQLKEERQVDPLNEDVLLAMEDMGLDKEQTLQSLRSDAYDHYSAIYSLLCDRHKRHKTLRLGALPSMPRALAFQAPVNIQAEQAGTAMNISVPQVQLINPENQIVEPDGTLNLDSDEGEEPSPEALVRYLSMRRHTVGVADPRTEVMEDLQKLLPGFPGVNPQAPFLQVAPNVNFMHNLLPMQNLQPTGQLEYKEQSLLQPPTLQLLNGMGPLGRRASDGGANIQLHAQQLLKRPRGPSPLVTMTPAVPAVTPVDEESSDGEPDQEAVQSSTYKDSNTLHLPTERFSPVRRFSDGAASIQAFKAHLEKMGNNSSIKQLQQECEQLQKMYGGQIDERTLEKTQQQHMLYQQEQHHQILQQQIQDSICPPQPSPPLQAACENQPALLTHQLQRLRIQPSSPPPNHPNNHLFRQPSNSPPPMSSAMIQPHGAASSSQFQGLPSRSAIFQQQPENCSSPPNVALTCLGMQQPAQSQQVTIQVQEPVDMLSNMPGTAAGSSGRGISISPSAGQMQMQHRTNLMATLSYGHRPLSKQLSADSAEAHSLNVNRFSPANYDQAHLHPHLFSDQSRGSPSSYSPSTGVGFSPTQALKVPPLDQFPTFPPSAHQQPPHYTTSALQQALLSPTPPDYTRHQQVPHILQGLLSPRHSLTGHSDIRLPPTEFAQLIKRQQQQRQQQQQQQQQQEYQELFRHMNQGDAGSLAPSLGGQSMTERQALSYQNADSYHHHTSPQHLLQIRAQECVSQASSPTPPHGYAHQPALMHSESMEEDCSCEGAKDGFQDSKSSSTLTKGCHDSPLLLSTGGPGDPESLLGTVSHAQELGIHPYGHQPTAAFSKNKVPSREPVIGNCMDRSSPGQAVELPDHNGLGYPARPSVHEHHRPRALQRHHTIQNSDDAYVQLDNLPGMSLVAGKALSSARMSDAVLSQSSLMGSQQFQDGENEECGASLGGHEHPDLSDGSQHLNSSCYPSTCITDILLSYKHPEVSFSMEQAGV", "experiment": "Selectivity interaction (KinomeScan (DiscoverX)) EUB0000666a SIK3", "conditions": "at 10 µM"}, "[7]": {"target": "T3, Calcium/calmodulin-dependent protein kinase type IV (Homo sapiens) (UniProt Q16566)", "T3 sequence (whole entry)": "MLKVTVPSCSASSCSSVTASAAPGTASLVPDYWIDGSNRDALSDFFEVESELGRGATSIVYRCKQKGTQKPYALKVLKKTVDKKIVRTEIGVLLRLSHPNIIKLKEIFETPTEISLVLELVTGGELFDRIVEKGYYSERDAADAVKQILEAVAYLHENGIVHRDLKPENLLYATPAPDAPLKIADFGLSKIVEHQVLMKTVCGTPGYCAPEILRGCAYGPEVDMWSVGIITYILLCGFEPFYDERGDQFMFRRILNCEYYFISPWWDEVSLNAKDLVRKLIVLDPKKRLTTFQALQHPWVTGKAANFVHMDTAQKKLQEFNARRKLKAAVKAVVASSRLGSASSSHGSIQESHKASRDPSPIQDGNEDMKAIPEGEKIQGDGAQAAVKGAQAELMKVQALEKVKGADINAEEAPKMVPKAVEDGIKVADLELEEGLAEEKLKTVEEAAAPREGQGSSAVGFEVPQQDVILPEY", "experiment": "Selectivity interaction (KinomeScan (DiscoverX)) EUB0000666a CAMK4", "conditions": "at 10 µM"}, "[8]": {"target": "Mitogen-activated protein kinase kinase kinase 20 (Homo sapiens) (UniProt Q9NYL2)", "sequence (Q9NYL2 2-800 limits assumed)": "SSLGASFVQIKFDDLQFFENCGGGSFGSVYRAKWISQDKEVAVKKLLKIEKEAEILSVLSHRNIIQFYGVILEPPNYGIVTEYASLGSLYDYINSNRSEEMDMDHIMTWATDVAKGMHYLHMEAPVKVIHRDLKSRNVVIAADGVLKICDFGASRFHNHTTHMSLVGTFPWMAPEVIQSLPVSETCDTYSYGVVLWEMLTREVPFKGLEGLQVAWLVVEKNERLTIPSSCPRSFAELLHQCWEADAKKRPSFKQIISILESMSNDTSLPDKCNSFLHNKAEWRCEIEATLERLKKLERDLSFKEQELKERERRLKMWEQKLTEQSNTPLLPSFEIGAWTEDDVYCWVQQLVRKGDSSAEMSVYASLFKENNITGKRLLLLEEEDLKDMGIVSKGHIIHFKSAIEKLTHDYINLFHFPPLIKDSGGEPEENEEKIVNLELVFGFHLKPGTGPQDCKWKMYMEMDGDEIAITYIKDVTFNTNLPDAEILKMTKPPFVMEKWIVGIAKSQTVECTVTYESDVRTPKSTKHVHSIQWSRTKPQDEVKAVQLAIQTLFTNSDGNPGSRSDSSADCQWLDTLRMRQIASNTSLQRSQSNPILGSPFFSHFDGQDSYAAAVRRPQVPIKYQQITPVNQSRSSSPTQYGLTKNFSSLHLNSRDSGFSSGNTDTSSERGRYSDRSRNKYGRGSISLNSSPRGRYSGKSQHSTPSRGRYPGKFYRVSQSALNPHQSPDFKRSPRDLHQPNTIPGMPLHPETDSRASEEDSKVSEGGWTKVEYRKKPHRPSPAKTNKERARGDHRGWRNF", "experiment": "Selectivity interaction (KinomeScan (DiscoverX)) EUB0000666a MAP3K20", "conditions": "at 10 µM"}},
  "data": [
    {"smiles": "Cc1cc([C@@H](C)Nc2ccccc2C(=O)O)c2nc(N3CCOCC3)cc(=O)n2c1", "note": "[AZD-6482]", "values": [
      {"measurement": "% of control", "setting": "[1]", "value": 100, "unit": "%"}
    ]},
    {"smiles": "Cc1cnc(Nc2ccc(F)cc2Cl)nc1-c1c[nH]c(C(=O)N[C@H](CO)c2cccc(Cl)c2)c1", "values": [
      {"measurement": "% of inhibition", "setting": "[2]", "value": 0, "unit": "%"}
    ]},
    {"smiles": "CN(C)C/C=C/C(=O)Nc1ccc(C(=O)N2CCCC(Nc3ncc(Cl)c(-c4c[nH]c5ccccc45)n3)C2)cc1", "note": "(stereo not drawn)", "values": [
      {"measurement": "% of control", "setting": "[3]", "value": 97, "unit": "%"}
    ]},
    {"smiles": "Nc1cnc(N2CCc3cc(S(=O)(=O)Nc4c(F)cc(Cl)cc4F)cc(N4CCCC4=O)c32)nc1", "note": "[TP-020n]", "values": [
      {"measurement": "% of control", "setting": "[4]", "value": 100, "unit": "%"}
    ]},
    {"smiles": "N#Cc1cccc(-c2c[nH]c3ncnc(N4CCOCC4)c23)c1", "values": [
      {"measurement": "% of control", "setting": "[5]", "value": 100, "unit": "%"}
    ]},
    {"smiles": "O=C(NOC[C@H](O)CO)c1ccc(F)c(F)c1Nc1ccc(I)cc1F", "values": [
      {"measurement": "% of control", "setting": "[6]", "value": 52, "unit": "%"},
      {"measurement": "% of control", "setting": "[7]", "value": 100, "unit": "%"},
      {"measurement": "% of control", "setting": "[8]", "value": 88, "unit": "%"}
    ]}
  ]
}
